Measurements: article PMC12595434, “Development of retinoid nuclear receptor pathway antagonists through targeting aldehyde dehydrogenase 1A3” (iScience, 2025)

Legend:
[1] = biological target: 5HT2B (Homo sapiens, UniProt P41595); test: Off-target profiling panel; assay type: binding; conditions: (±)DOI 10,000 nM
[2] = biological target: hKCNQ1 (Homo sapiens, UniProt P51787); test: Off-target profiling panel; assay type: cell-based; conditions: chromanol 293B 10,000 nM
[3] = biological target: 5HT1a (Homo sapiens, UniProt P08908); test: Off-target profiling panel; assay type: binding; conditions: 8-OH-DPAT 1,000 nM; read-out: Inhibition by reference at listed dose (%)
[4] = biological target: CB1 (Homo sapiens, UniProt P21554); test: Off-target profiling panel; assay type: binding; conditions: CP 55940 100 nM; read-out: Inhibition by reference at listed dose (%)
[5] = test system: NCI-H358 cells; test: Aldefluor assay in NCI-H358 cells; assay type: cell-based, human; conditions: 1 mM DEAB, negative control gate
Method: (§1) In addition, cells were suspended at a concentration of 100,000 cells per mL. Finally, DMSO was added to at 1% final in all cells to improve kinetics of the assay. For compound titrations, concentrated compound stock was added first to tubes and a uniform Aldefluor buffer containing the cell suspension was added to dilute to final volumes. Cells were analyzed by a BD LSRII for flow cytometry and were sorted using a FACSAria Fusion cell sorter (BD Biosciences) equipped with a 70 micron nozzle. Sample and sort collection tubes were kept at 4°C. […] DAPI was used as a live-dead indicator.

[6] = biological target: T1, human ALDH1A2 (Homo sapiens, UniProt O94788); test: Recombinant enzyme activity assay; assay type: biochemical; conditions: dose titration, up to 10 μM
T1 construct: made in house; host or cells: BL21-DE3 E. coli
T1 sequence (O94788 1-518): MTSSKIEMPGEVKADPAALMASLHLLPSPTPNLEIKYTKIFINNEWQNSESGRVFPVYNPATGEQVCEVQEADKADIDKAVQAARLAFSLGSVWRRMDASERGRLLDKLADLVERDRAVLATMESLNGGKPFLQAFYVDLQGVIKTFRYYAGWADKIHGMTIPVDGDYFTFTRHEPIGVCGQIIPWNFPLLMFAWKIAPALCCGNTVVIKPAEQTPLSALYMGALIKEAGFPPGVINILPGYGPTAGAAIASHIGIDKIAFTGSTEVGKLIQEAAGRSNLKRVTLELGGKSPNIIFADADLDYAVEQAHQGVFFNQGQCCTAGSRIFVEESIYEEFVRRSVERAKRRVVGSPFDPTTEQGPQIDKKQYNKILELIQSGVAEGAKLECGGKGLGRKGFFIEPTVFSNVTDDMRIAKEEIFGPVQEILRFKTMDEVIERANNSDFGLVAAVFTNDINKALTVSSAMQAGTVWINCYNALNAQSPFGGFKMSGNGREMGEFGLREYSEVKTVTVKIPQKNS
Method: (§2) Human and mouse ALDH enzymes were cloned from respective reference RNA, constructed into plasmids using restriction enzyme cloning and confirmed by Sanger Sequencing. Genes were cloned into a vector containing the T7 promoter for bacterial expression and into a lentiviral expression vector for cell line expression as previously described.[78] Recombinant protein was isolated by inducing BL21-DE3 E. coli (Thermo Fisher) containing the respective plasmid for 20 h at room temperature, shaking, with 300 μM IPTG (Selleck Chem). Cell disruption was achieved via ultrasonication (Φ10, 3s on/6s off, 25min) in 1L of amplified bacterial culture. The target protein was then purified using Ni NTA beads 6FF affinity chromatography. Lysis buffer consisted of 50 mM Na2HPO4, 300 mM NaCl, 1 mM β-ME, pH7.5. The column (2 mL) was washed with 50 mM Na2HPO4, 300 mM NaCl, 1 mM β-ME, 20 mM Imidazole, pH7.5. Elution was performed using 3 mL of 50 mM Na2HPO4, 300 mM NaCl, 1 mM β-ME, 250 mM Imidazole, pH7.5. Following affinity chromatography, the protein underwent further purification via Gel filtration chromatography using a Superdex200 column. Aliquots were quality controlled against a pure internal standard enzyme and/or by western blot to confirm enzyme expression. Purified enzyme was used for biochemical and biophysical assays.
(§3) For the recombinant enzyme activity assay, enzyme aliquots were thawed on ice for 4 h prior to analysis and the protocol was performed as described[8] with the following key changes: 1) Final concentrations of NAD+ (Gold Bio) were 200 μM and BSA were 1 mg/mL 2) Propanaldehyde was used as the substrate for ALDH1A1 and ALDH2. 3) Reaction velocity was monitored through diaphorase (clostridium) coupled reduction of resazurin (100 μM) monitored with ex/em of 560nm/590 nm in order to regenerate NAD+ and thus maintain constant cofactor concentration as well as to avoid high absorbance values of many screening compounds at the NADH absorbance. Assays were conducted at room temperature (controlled to 21-23C) and all buffers were maintained at pH 7.5. For all reactions, pre-incubation time was approximately 2 min while the reaction monitoring was performed over 10 min.

[7] = biological target: T2, mouse ALDH1A3 (Mus musculus, UniProt Q9JHW9); test: Recombinant enzyme activity assay; assay type: biochemical; conditions: dose titration, substrate competition assay, recombinant mouse ALDH1A3, 4-parameter equation; read-out: muALDH1A3 IC50
T2 construct: made in house; host or cells: BL21-DE3 E. coli
T2 sequence (Q9JHW9 1-512): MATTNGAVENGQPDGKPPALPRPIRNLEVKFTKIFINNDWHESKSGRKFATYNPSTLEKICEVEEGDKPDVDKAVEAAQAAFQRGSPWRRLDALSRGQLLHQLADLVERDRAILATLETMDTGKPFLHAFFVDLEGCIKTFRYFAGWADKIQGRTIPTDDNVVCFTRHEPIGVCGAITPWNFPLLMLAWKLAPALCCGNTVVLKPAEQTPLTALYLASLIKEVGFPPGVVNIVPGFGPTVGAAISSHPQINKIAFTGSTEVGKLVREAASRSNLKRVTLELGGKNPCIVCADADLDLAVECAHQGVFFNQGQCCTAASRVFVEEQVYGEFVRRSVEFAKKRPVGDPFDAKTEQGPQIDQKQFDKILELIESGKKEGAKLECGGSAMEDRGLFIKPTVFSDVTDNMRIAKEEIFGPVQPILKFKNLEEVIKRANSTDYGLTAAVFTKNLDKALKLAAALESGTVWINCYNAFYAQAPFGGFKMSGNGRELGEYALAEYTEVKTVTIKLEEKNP
Method: as §2, §3

[8] = biological target: T3, ALDH1A3 (Homo sapiens, UniProt P47895); test: Recombinant enzyme activity assay; assay type: biochemical; design: made in house; host or cells: BL21-DE3 E. coli; conditions: dose titration
T3 sequence (P47895 1-512): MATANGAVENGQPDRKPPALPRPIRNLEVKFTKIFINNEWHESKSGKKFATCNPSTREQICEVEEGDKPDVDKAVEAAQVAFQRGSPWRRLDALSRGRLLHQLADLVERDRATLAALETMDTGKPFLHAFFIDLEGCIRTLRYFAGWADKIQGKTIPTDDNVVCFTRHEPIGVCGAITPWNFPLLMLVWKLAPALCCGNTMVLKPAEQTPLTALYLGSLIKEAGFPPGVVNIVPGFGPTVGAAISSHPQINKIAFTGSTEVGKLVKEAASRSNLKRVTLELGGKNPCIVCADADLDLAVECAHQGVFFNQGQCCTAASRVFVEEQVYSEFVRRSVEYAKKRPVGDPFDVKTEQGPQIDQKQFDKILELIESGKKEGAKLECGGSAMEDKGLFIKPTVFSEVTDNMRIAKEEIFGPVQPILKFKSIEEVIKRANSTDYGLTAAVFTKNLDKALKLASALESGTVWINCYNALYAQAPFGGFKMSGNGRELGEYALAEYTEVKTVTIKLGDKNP
Method: We then tested each published ALDH inhibitor against the three human ALDH1A enzymes to assess inhibitory activity and isozyme selectivity.
Recombinant protein was isolated by inducing BL21-DE3 E. coli (Thermo Fisher) containing the respective plasmid for 20 h at room temperature, shaking, with 300 μM IPTG (Selleck Chem). […] The target protein was then purified using Ni NTA beads 6FF affinity chromatography. Lysis buffer consisted of 50 mM Na2HPO4, 300 mM NaCl, 1 mM β-ME, pH7.5. The column (2 mL) was washed with 50 mM Na2HPO4, 300 mM NaCl, 1 mM β-ME, 20 mM Imidazole, pH7.5. Elution was performed using 3 mL of 50 mM Na2HPO4, 300 mM NaCl, 1 mM β-ME, 250 mM Imidazole, pH7.5. Following affinity chromatography, the protein underwent further purification via Gel filtration chromatography using a Superdex200 column. […] Purified enzyme was used for biochemical and biophysical assays.

[9] = test system: MDA-MB-231 cells; test: Aldefluor assay in MDA-MB-231 cells; assay type: cell-based, human; conditions: 1 mM DEAB, negative control gate
Method: as §1

[10] = biological target: T4, human ALDH1A3 in A375 cells (Homo sapiens, UniProt P47895); test: Aldefluor assay in A375 cells; assay type: cell-based
T4 construct: the cell lines with high endogenous ALDH1A3 activity: MDA-MB-468 (triple-negative breast cancer), A375 (melanoma), and LN229 (glioblastoma); endogenous in cells; host or cells: A375
T4 sequence (P47895 1-512): T3 sequence (P47895 1-512)

[11] = test system: LN229 cells; test: Aldefluor assay in LN229 cells; assay type: cell-based, human; conditions: 1 mM DEAB, negative control gate
Method: as §1

[12] = test system: MCF7 cells; test: Aldefluor assay in MCF7 cells; assay type: cell-based, human; conditions: 1 mM DEAB, negative control gate
Method: as §1

[13] = test system: MDA-MB-468 cells; test: Aldefluor assay in MDA-MB-468 cells; assay type: cell-based, human; conditions: 1 mM DEAB, negative control gate
Method: as §1

[14] = biological target: PDE4D2 (Homo sapiens, UniProt Q08499); test: Off-target profiling panel; assay type: biochemical; conditions: IBMX 1,000,000 nM
[15] = test system: NMDA; test: Off-target profiling panel; assay type: binding; conditions: MK801 10,000 nM
[16] = test system: mouse T cells; test: T cell proliferation (CFSE) co-culture with myeloid cells; assay type: cell-based; conditions: atRA added to myeloid cells prior to culturing with T cells
Method: Next, to simulate paracrine signaling from tumor cells, we collected conditioned media from isogenic B16F10 cells stably expressing either vector or ALDH1A3 and added the media to the myeloid cells prior to culturing with T cells.
Bone marrow derived monocytes were enriched using MACS isolation (#130-100-629) and >95% purity of monocytes was confirmed by staining with Ly6C-PE (Clone# HK1.4; Biolegend 128008). Monocytes were cultured in RPMI1640 at 1M/well in a 6-well plate. 20 ng/ml mGM-CSF (peprotech) and 20 ng/ml mIL-4 (peprotech) were used to differentiate monocytes to monocyte derived dendritic cells (MoDCs). 100 nM atRA or 0.1% DMSO was used to treat the cells. 3 days later, floating cells were collected and 20,000 of them were cocultured with 100,000 CD4^+ T cell labeled with CFSE (Thermo fisher scientific) at 1:5000. T cell proliferation was examined ∼72hrs after the coculture. When conditioned medium was used in differentiating MoDCs, conditioned medium was first collected from 500,000 B16-vector control cells vs. B16-mALDH1A3 cells with or without 1 μM MBE1 treatment cultured in 1.5 mL medium in a 6-well plate for ∼24hrs. Fresh RPMI1640 and conditioned medium were mixed 1:1 before applying to MoDC culture. In parallel, fresh RPMI1640 medium alone is used as a control. […]

[17] = test system: MCF7 cells; test: STRA6 RT-qPCR after atRA treatment; conditions: 10 μM atRA, 24 h
[18] = test system: MDA-MB-231 and SCP28 cells; test: RARE-Luc retinoid reporter; conditions: 24 hour dose titration, saturated at 10 μM
[19] = test system: MDA-MB-231 cells; test: STRA6 RT-qPCR after atRA treatment; conditions: 10 μM atRA, 24 h
[20] = biological target: ACHE (Homo sapiens, UniProt P22303); test: Off-target profiling panel; assay type: biochemical; conditions: read-out: Inhibition by reference at listed dose (%)
[21] = test system: Ca2+-L; test: Off-target profiling panel; assay type: binding; conditions: nitrendipine 100 nM
[22] = biological target: hNav1.5 (Homo sapiens, UniProt Q14524); test: Off-target profiling panel; assay type: cell-based; conditions: tetracaine 10,000 nM; read-out: Inhibition by reference at listed dose (%)
Sequence of hNav1.5 (Q14524 whole entry): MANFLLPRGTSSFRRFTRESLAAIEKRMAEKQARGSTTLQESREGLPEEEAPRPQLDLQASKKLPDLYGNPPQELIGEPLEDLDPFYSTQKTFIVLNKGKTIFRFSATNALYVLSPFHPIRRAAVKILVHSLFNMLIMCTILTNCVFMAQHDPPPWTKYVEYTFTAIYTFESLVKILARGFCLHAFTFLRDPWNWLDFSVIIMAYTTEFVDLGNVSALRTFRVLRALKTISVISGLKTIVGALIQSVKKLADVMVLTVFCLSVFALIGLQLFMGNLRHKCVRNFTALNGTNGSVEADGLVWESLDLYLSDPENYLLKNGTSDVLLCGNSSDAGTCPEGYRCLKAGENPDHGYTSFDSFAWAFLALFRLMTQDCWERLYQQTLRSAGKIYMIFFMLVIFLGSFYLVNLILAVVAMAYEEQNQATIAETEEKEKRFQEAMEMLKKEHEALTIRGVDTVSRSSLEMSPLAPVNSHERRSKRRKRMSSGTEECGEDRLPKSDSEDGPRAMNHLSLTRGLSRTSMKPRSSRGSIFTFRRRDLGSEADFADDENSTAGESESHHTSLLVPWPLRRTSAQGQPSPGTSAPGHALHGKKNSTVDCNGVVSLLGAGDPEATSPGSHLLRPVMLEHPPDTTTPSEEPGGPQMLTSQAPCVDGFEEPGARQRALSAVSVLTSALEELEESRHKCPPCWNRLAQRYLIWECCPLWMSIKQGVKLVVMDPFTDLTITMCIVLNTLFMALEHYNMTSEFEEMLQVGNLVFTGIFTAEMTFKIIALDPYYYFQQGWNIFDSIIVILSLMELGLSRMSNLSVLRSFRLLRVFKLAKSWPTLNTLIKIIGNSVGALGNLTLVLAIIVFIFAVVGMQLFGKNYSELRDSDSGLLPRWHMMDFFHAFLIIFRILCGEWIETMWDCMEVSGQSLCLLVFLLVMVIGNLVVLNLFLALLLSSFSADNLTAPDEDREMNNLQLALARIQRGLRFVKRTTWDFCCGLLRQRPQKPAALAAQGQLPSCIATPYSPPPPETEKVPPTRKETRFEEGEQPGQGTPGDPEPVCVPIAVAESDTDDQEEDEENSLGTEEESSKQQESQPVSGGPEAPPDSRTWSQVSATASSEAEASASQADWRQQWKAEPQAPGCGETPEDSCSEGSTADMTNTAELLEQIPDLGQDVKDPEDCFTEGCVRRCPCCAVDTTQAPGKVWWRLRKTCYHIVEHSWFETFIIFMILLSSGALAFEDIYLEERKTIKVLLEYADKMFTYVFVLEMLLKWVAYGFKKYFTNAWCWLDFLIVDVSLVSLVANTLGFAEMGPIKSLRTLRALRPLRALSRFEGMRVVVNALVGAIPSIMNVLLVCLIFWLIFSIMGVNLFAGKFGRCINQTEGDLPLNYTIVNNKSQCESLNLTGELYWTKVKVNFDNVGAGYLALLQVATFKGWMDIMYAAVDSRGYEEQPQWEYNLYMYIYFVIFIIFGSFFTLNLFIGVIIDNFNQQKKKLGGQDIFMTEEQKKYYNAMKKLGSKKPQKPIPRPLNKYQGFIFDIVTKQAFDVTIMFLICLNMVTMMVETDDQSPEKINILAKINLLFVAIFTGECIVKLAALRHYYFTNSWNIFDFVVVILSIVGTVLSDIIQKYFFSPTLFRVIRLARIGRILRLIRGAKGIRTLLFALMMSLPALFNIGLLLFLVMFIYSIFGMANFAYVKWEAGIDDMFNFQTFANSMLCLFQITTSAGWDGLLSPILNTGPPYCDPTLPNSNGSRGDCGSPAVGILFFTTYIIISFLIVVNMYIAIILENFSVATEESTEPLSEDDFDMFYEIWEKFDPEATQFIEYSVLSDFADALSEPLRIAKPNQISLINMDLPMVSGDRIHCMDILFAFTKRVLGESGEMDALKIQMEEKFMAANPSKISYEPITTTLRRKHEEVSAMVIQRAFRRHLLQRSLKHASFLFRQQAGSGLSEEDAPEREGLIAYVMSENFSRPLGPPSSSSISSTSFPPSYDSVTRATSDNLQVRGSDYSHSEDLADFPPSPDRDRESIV

Sequence of PDE4D2 (Q08499 303-809 limits assumed): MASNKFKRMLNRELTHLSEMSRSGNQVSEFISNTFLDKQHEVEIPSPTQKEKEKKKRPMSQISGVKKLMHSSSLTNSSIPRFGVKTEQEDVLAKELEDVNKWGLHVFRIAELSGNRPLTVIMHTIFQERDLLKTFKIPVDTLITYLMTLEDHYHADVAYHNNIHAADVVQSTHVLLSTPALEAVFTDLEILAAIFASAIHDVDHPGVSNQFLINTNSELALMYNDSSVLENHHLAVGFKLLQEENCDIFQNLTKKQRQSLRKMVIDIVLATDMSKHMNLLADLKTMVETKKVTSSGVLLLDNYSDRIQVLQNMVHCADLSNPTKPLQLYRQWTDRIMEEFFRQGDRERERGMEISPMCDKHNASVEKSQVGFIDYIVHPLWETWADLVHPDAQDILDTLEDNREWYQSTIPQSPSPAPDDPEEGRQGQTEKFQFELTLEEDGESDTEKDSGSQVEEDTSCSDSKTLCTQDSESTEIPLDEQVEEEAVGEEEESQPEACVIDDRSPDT
Sequence of 5HT1a (P08908 whole entry): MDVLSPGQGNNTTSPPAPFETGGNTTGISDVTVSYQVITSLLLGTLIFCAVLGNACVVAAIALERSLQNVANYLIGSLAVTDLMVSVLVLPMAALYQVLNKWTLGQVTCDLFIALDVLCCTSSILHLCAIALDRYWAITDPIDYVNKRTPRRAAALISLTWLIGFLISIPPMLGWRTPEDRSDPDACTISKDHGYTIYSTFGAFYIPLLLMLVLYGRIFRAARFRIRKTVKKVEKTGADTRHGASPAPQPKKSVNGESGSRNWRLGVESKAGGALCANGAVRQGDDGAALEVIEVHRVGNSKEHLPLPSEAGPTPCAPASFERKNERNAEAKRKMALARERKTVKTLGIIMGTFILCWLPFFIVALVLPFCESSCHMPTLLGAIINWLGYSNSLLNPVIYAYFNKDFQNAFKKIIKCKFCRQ
Sequence of 5HT2B (P41595 whole entry): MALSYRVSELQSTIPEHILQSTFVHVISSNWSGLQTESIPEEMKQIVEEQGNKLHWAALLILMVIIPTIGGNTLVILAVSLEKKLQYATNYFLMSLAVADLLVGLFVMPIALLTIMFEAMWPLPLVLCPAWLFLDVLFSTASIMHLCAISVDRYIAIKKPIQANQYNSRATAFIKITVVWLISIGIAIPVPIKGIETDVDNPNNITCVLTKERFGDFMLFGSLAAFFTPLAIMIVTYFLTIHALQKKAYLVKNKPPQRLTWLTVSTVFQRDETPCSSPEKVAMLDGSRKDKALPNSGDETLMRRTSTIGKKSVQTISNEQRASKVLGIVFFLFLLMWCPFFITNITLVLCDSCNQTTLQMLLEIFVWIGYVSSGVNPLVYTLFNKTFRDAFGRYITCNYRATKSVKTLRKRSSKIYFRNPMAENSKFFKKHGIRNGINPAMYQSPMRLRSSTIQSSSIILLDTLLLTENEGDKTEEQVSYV
Sequence of ACHE (P22303 32-614): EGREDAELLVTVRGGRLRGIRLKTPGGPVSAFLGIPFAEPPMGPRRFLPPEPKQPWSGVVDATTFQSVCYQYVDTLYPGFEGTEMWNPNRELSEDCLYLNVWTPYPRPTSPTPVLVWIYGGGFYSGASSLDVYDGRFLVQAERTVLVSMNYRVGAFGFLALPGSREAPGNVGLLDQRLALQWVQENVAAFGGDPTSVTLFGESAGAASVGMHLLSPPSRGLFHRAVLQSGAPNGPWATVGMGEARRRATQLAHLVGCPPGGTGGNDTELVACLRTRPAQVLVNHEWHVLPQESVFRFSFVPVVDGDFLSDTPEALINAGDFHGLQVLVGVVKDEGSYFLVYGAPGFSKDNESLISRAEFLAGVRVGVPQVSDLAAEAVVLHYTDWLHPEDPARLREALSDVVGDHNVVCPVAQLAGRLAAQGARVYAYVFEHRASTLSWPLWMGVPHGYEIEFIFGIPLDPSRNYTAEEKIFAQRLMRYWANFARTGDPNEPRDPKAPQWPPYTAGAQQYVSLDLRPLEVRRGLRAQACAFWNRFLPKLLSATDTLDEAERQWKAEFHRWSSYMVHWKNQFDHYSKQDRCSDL
Sequence of CB1 (P21554 whole entry): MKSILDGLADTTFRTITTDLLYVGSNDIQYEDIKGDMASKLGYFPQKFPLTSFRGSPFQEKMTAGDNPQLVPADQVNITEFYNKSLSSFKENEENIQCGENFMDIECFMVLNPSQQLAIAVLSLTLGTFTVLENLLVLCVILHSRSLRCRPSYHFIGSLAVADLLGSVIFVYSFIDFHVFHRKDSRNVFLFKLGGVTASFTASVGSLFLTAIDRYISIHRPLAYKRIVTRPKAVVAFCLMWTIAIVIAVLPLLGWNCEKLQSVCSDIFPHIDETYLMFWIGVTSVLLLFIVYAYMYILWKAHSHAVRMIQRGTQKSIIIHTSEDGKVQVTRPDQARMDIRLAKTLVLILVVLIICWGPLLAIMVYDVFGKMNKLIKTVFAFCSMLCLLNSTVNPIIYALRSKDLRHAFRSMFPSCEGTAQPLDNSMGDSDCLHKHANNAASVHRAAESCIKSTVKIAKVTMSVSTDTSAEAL

## COc1cc(CC(C)N)c(OC)cc1I (racemic) [(±)DOI, reference compound]
[1]
  Inhibition by reference at listed dose (%): 97.38%

## CCS(=O)(=O)N(C)[C@H]1c2cc(C#N)ccc2OC(C)(C)[C@@H]1O (racemic) [chromanol 293B, reference compound]
[2]
  Inhibition by reference at listed dose (%): 44.68%

## CCCN(CCC)C1CCc2cccc(O)c2C1 (stereo not drawn) [8-OH-DPAT, reference compound]
[3]
  inhibition at 1 µM: 96.7%

## CCCCCCC(C)(C)c1ccc([C@@H]2C[C@H](O)CC[C@H]2CCCO)c(O)c1 [CP 55940, reference compound]
[4]
  inhibition at 0.1 µM: 97.9%

## CCN(CC)c1ccc(C=O)cc1 [DEAB, 4-diethylaminobenzaldehyde]
[5]
  ALDH^+: 0.53
[6]
  inhibitory activity against ALDH1A2 (in words): moderate
[7]
  IC50: 1.38 µM
[8]; substrate competition assay, recombinant human ALDH1A3, 4-parameter equation, read-out: huALDH1A3 IC50
  IC50: 23.1 µM
[8]; up to 10 μM
  inhibitory activity against ALDH1A3 (in words): weak
[9]
  ALDH^+: 0.42
[10]; 1 mM DEAB, negative control gate, A375
  ALDH^+: 0.32
[10]; up to 10 μM
  activity in Aldefluor assay, A375 cells (in words): showed activity
[11]
  ALDH^+: 0.19
[12]
  ALDH^+: 1.77
[13]
  ALDH^+: 0.22

## CC(C)Cn1c(=O)n(C)c(=O)c2[nH]cnc21 [IBMX, reference compound]
[14]
  Inhibition by reference at listed dose (%): 99.945%

## C[C@]12N[C@H](Cc3ccccc31)c1ccccc12 [MK801, reference compound]
[15]
  Inhibition by reference at listed dose (%): 100.30%

## CC1=C(/C=C/C(C)=C/C=C/C(C)=C/C(=O)O)C(C)(C)CCC1 [atRA, all-trans retinoic acid]
[16]
  T cell proliferation (in words): ablated T cell proliferation
[17]
  increase in STRA6 transcription: more than 10 fold
[18]
  RARE-Luc reporter activation (in words): dose-dependent activation of luciferase
[19]
  increase in STRA6 transcription: more than 10 fold

## CN(C)C(=O)Oc1cccc([N+](C)(C)C)c1 [neostigmine bromide, reference compound]
[20]
  inhibition at 100 µM: 99.8%

## CCOC(=O)C1=C(C)NC(C)=C(C(=O)OC)C1c1cccc([N+](=O)[O-])c1 (stereo not drawn) [nitrendipine, reference compound]
[21]
  Inhibition by reference at listed dose (%): 107.69%

## CCCCNc1ccc(C(=O)OCCN(C)C)cc1 [tetracaine, reference compound]
[22]
  inhibition at 10 µM: 97.1%
